Key:
[1] = tested on: rabbit sodium citrate anticoagulant plasma; assay: In vitro anticoagulant activity: activated partial thromboplastin time (APTT); assay type: biochemical; settings: compound concentration that prolonged the APTT time by 1 time vs blank control
Method: The experiment used […]-1 immunomagnetic single channel semi-automated blood coagulation analyzer to measure blood coagulation time. Principle: At 37° C., using Kaolin to activate factors □ and □; using cephalin (partial thromboplastin) to replace platelet factor 3; and in the presence of Ca^2+, the time needed for the coagulation of plasma which lacks of platelet is observed as activated partial thromboplastin time. This experiment is a screening test which is sensitive and commonly used for the endogenous blood coagulation system. Test method: To the rabbit sodium citrate anticoagulant plasma (3.8% sodium citrate, 1:9 mixture) were added various concentrations of the compounds to be tested. APTT reagents ([…], Beijing) were used to measure the […] activation time. The compound concentration that prolonged the APTT time by 1 time, when compared with the blank control, was recorded as APTT2, thereby evaluating the anticoagulant activity of the compounds. Rabbit sodium citrate anticoagulant plasma (3.8% sodium citrate plasma, 1:9 mixture) was purchased from Guangzhou Ruite Bio company; […]-1 immunomagnetic single channel semi-automated blood coagulation analyzer and […] blood coagulation 3-item reagents were purchased from Beijing […] instrument company. […] Each concentration of each sample was assayed in 3-6 duplicate wells, and the experiment was independently carried out for 2-3 times.

in vivo = assay: in vivo
Method: Healthy male SD rats, body weight 200-220 g, randomly divided into 6 groups with each group 3-4 rats, were administered with the subject compound via intragastric administration and intravenous injection, respectively.
The subject compound was prepared with 5% DMSO/5% Twain 80/90% saline into solution for administration.
The rats were fasted for 12 hrs before experiment, free water-drinking, and were all fed 2 h after administration. Blood sampling time and sample treatment:
intragastric administration: 0.25, 0.5, 1.0, 2.0, 3.0, 4.0, 6.0, 8.0, and 24 h after administration;
intravenous administration: 5 min, 0.25, 0.5, 1.0, 2.0, 4.0, 6.0, 8.0, and 24 h after administration.
At the time points defined above, 0.3 ml of venous blood was taken from the posterior venous plexus of rats to heparinized tubes, centrifuged at 11000 rpm for 5 mins to separate the plasma, which was then frozen at −20° C. in a refrigerator.

[2] = tested on: rabbit sodium citrate anticoagulant plasma; assay: In vitro anticoagulant activity: prothrombin time (PT); assay type: biochemical; settings: compound concentration that prolonged the PT time by 1 time vs blank control
Method: The experiment used […]-1 immunomagnetic single channel semi-automated blood coagulation analyzer to measure blood coagulation time. Principle: An excessive amount of tissue thromboplastin (infusion of preparations such as human brain, rabbit brain, placenta, and lung tissue) and calcium ion are added to the plasma to be tested, thereby converting prothrombin into thrombin, and the latter converts fibrinogen into fibrin. The time needed for plasma coagulation is observed as prothrombin time. This experiment is the most commonly used screening test for the evaluation of an extrinsic coagulation system. Test method: To the rabbit sodium citrate anticoagulant plasma (3.8% sodium citrate, 1:9 mixture) were added various concentrations of the compounds to be tested. PT reagents ([…], Beijing) were used to measure the prothrombin activation time. The compound concentration that prolonged the PT time by 1 time, when compared with the blank control, was recorded as PT2, thereby evaluating the anticoagulant activity of the compounds. Rabbit sodium citrate anticoagulant plasma (3.8% sodium citrate plasma, 1:9 mixture) was purchased from Guangzhou Ruite Bio company; […]-1 immunomagnetic single channel semi-automated blood coagulation analyzer and […] blood coagulation 3-item reagents were purchased from Beijing […] instrument company. […] Each concentration of each sample was assayed in 3-6 duplicate wells, and the experiment was independently carried out for 2-3 times.

human recombinant FXa = molecular target: T1, human recombinant FXa (Homo sapiens, UniProt P00742); assay: FXa inhibitory activity assay (chromogenic substrate, 405 nm); assay type: biochemical; settings: inhibitory activity on FXa, preincubated at 37° C. for 10 mins
T1 construct: purchased Calbiochem; host or cells: human plasma
T1 sequence (P00742 235-488 limits assumed): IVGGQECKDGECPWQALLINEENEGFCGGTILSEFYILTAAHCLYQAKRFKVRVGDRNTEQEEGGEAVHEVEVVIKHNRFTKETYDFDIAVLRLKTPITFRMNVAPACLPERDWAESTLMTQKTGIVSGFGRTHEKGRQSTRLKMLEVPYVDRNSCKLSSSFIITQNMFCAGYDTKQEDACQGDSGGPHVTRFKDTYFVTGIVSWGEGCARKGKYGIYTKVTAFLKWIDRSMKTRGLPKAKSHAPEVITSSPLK
T1 sequence (P00742 41-179 partner limits assumed): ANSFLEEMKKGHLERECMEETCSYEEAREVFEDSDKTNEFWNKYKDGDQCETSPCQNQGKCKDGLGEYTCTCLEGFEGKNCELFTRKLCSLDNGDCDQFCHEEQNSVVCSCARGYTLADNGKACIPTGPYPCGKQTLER
Method: Experimental principle and method: FXa cuts the Arg carboxyl end in the substrate N-Z-D-Arg-Gly-Arg-pDA in vitro and releases p-nitrophenylamine which has specific absorption at 405 nm wavelength. The amount of the […] generated is determined at 405 nm to evaluate the activity of the compound to inhibit the human recombinant FXa in vitro.
Human plasma coagulation factor Xa was purchased from Calbiochem; the substrate N-Z-D-Arg-Gly-Arg-pDA was purchased from chromogenic. The subject compound, enzyme and the reaction buffer were mixed and preincubated at 37° C. for 10 mins. The substrate was added. The absorption at 405 nm wavelength was measured continuously over 20 mins. At the same time, a blank control group (without enzyme, 100% inhibition rate) and a negative control group (replace the subject compound with DMSO, 0% inhibition rate) were set up. The reaction system was 100 μl (50 μl of Tris buffer, 10 μl of compound, 20 μl (0.027 U/ml) of enzyme, 20 μl (300 μM) of substrate). Each concentration of each sample was assayed in triplicate. The experiment was carried out for 2 times independently.

thrombus formation = assay: In vivo anticoagulant activity: electrically induced carotid artery thrombus formation time; parameters: species or system rat; settings: for ED50: Rattus norvegicus, po, male SD rats, intragastric administration, 3 mA electrical stimulation of left common carotid artery 1 h after administration, read-out: ED50 for prolonging the thrombus formation time
Method: The rats were fasted for 12 h, then weighted, and treated by intragastric administration. After 45 min, the rats were anesthetized with chloral hydrate (350 mg/kg), immobilized, and the left common carotid artery was exposed by surgery. The artery and the surrounding tissue were separated by plastic wrap. Electrical stimulation was started 1 h after intragastric administration. The stimulation electrode of the BT87-4 tester for experimental in vivo thrombus formation was placed at the end of the blood vessels proximal to the heart. 3 mA current was used for a 2 min of stimulation. The instrument started the timer automatically when the stimulation began. The stimulation switch was turned off when the stimulation ended. The stimulation electrode was removed, and a thermostat probe was placed at the end of the artery on the stimulation site, which end is distal to the heart. At the time of 600 seconds, the pointer of the thermostat panel was slowly moved to the position of 0. The time from the start of simulation to the alarm of the instrument was recorded as the time of blood vessel blockage (or the time of thrombus formation). If a drug has antithrombosis effect, the time of thrombus formation (time of blood vessel blockage) will be prolonged. IBM SPSS Statistics 20 software was used for the t test of the experimental data.

[3] = male, SD, rat, in vivo, iv, 3 mg/kg
[4] = male, SD, rat, in vivo, po, 10 mg/kg
[5] = male, SD, rat, in vivo, iv, 4.5 mg/kg
[6] = male, SD, rat, in vivo, po, 9 mg/kg

O=C(NC[C@@H]1OC(=O)N2c3ccc(N4CCOCC4=O)cc3OC[C@@H]12)c1ccc(Cl)s1 [Compound 1, 5-chloro-N-(((3S,3aS)-1-oxo-7-(3-oxomorpholin-4-yl)-1,3,3a,4-tetrahydrobenzo[b]oxazolo[3,4-d][1,4]oxazin-3-yl)methyl)thiophene-2-carboxamide]
APTT2 [1]: 0.141 µM | F (in vivo; male, SD, rat, in vivo): 63.7% | CLz (in vivo; [3]): 3.35 mL/min/kg | MRT (in vivo; [3]): 1.03 h | T1/2 (in vivo; [3]): 1.00 h | Vss (in vivo; [3]): 0.201 L/kg | Cmax (in vivo; [4]): 11901 ng/mL | MRT (in vivo; [4]): 2.23 h | T1/2 (in vivo; [4]): 1.33 h | Tmax (in vivo; [4]): 0.75 h | AUC0-t (in vivo; rat, in vivo, iv, 3 mg/kg): 15324 ngh/mL | AUC0-∞ (in vivo; rat, in vivo, iv, 3 mg/kg): 15339 ngh/mL | AUC0-t (in vivo; rat, in vivo, po, 10 mg/kg): 32529 ngh/mL | AUC0-∞ (in vivo; rat, in vivo, po, 10 mg/kg): 33044 ngh/mL | PT2 [2]: 0.184 µM | IC50 (human recombinant FXa): 2.25 ± 0.01 nM | ED50 (thrombus formation): 2.97 mg/kg | activity relative to rivaroxaban (thrombus formation; ratio of ED50s for prolonging thrombus formation time, rats): 1.53 times

O=C(NC[C@@H]1OC(=O)N2c3ccc(N4CCCCC4=O)cc3OC[C@@H]12)c1ccc(Cl)s1 [Compound 2, 5-chloro-N-(((3S,3aS)-1-oxo-7-(2-oxopiperidin-1-yl)-1,3,3a,4-tetrahydrobenzo[b]oxazolo[3,4-d][1,4]oxazin-3-yl)methyl)thiophene-2-carboxamide]
APTT2 [1]: 0.932 µM | F (in vivo; male, SD, rat, in vivo): 42.0% | CLz (in vivo; [5]): 2.28 mL/min/kg | MRT (in vivo; [5]): 3.04 h | Vss (in vivo; [5]): 0.406 L/kg | Cmax (in vivo; [6]): 6927 ng/mL | MRT (in vivo; [6]): 3.4 h | Tmax (in vivo; [6]): 0.67 h | AUC0-t (in vivo; rat, in vivo, iv, 4.5 mg/kg): 31057 ngh/mL | AUC0-∞ (in vivo; rat, in vivo, iv, 4.5 mg/kg): 33562 ngh/mL | AUC0-t (in vivo; rat, in vivo, po, 9 mg/kg): 26119 ngh/mL | AUC0-∞ (in vivo; rat, in vivo, po, 9 mg/kg): 28527 ngh/mL | T1/2 (in vivo; rats, intravenous injection (4.5 mg/Kg)): 1.95 h | T1/2 (in vivo; rats, oral administration (9 mg/Kg)): 2.10 h | PT2 [2]: 1.06 µM

O=C(NC[C@@H]1OC(=O)N2c3ccc(N4CCOCC4=O)cc3OC[C@@H]12)c1ccc(Cl)cc1 [Compound 17, 4-chloro-N-(((3S,3aS)-1-oxo-7-(3-oxomorpholin-4-yl)-1,3,3a,4-tetrahydrobenzo[b]oxazolo[3,4-d][1,4]oxazin-3-yl)methyl)benzamide]
IC50 (human recombinant FXa): 12.2 ± 10.5 nM

O=C(NC[C@@H]1OC(=O)N2c3ccc(N4CC[C@@H](F)CC4=O)cc3OC[C@@H]12)c1ccc(Cl)s1 [Compound 33, 5-chloro-N-(((3S,3aS)-7-((R)-4-fluro-2-oxopiperidin-1-yl)-1-oxo-1,3,3a,4-tetrahydrobenzo[b]oxazolo[3,4-d][1,4]oxazin-3-yl)methyl)-thiophene-2-carboxamide]
IC50 (human recombinant FXa): 15 ± 1.6 nM

O=C(NC[C@@H]1OC(=O)N2c3ccc(N4CC[C@H](F)CC4=O)cc3OC[C@@H]12)c1ccc(Cl)s1 [Compound 34, 5-chloro-N-(((3S,3aS)-7-((S)-4-fluro-2-oxopiperidin-1-yl)-1-oxo-1,3,3a,4-tetrahydrobenzo[b]oxazolo[3,4-d][1,4]oxazin-3-yl)methyl)-thiophene-2-carboxamide]
IC50 (human recombinant FXa): 19.3 ± 3.39 nM

NS(=O)(=O)c1ccccc1-c1ccc2c(c1)OC[C@H]1[C@H](CNC(=O)c3ccc(Cl)s3)OC(=O)N21 [Compound 35, 5-chloro-N-(((3S,3aS)-1-oxo-7-(2-aminosulfonylphenyl)-1,3,3a,4-tetrahydrobenzo[b]oxazolo[3,4-d][1,4]oxazin-3-yl)methyl)thiophene-2-carboxamide]
IC50 (human recombinant FXa): 19.6 ± 16.9 nM

CS(=O)(=O)c1ccccc1-c1ccc2c(c1)OC[C@H]1[C@H](CNC(=O)c3ccc(Cl)s3)OC(=O)N21 [Compound 36, 5-chloro-N-(((3S,3aS)-7-(2-(methylsulfonyl)phenyl)-1-oxo-1,3,3a,4-tetrahydrobenzo[b]oxazolo[3,4-d][1,4]oxazin-3-yl)methyl)thiophene-2-carboxamide]
IC50 (human recombinant FXa): 12.2 ± 4.08 nM

O=C(NC[C@H]1CN(c2ccc(N3CCOCC3=O)cc2)C(=O)O1)c1ccc(Cl)s1 [rivaroxaban, reference compound]
APTT2 [1]: 0.315 µM | F (in vivo; male, SD, rat, in vivo): 4.6% | CLz (in vivo; [3]): 4.75 mL/min/kg | MRT (in vivo; [3]): 0.88 h | Vd (in vivo; [3]): 0.25 L/kg | half-life (in vivo; [3]): 0.98 h | Cmax (in vivo; [4]): 440 ng/mL | MRT (in vivo; [4]): 7.01 h | Tmax (in vivo; [4]): 0.56 h | half-life (in vivo; [4]): 4.64 h | AUC0-t (in vivo; rat, in vivo, iv, 3 mg/kg): 10548 ngh/mL | AUC0-∞ (in vivo; rat, in vivo, iv, 3 mg/kg): 10575 ngh/mL | AUC0-t (in vivo; rat, in vivo, po, 10 mg/kg): 1608 ngh/mL | AUC0-∞ (in vivo; rat, in vivo, po, 10 mg/kg): 2242 ngh/mL | PT2 [2]: 0.399 µM | ED50 (thrombus formation): 4.53 mg/kg
